Measurements: US7566712B2, “Biaryl piperazinyl-pyridine analogues” (Neurogen Corporation, priority 2003, dated 2009)
Blank lines part the entries; values can stand above or below the compound they belong to.

Biological target: T1, human capsaicin receptor (Homo sapiens, UniProt Q8NER1)
T1 construct: pBK-CMV expression construct encoding the full length human capsaicin receptor; expressed in transfected cells
Experiment: Calcium mobilization assay, determination of antagonist activity (Example 6)
Format: cell-based
Settings: Table II
Outline: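 HEK293 clonal lines stably expressing full-length human capsaicin receptor, loaded with Fluo-3 AM in KRH buffer pH 7.4, 1–2 h at 37 °C. Compounds (1–5 μM final) preincubated 0.5–6 h at room temperature, then capsaicin at its EC50 added. FLIPR/Fluoroskan calcium signal; IC50 as 50% decrease of capsaicin response.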

[1] = IC50 determined as described in Example 6
[2] = determined as described in Example 6 (calcium mobilization, antagonist activity)
[3] = determined as described in Example 6 (antagonist activity), "*" = 1 micromolar or less

T1 sequence (Q8NER1 whole entry): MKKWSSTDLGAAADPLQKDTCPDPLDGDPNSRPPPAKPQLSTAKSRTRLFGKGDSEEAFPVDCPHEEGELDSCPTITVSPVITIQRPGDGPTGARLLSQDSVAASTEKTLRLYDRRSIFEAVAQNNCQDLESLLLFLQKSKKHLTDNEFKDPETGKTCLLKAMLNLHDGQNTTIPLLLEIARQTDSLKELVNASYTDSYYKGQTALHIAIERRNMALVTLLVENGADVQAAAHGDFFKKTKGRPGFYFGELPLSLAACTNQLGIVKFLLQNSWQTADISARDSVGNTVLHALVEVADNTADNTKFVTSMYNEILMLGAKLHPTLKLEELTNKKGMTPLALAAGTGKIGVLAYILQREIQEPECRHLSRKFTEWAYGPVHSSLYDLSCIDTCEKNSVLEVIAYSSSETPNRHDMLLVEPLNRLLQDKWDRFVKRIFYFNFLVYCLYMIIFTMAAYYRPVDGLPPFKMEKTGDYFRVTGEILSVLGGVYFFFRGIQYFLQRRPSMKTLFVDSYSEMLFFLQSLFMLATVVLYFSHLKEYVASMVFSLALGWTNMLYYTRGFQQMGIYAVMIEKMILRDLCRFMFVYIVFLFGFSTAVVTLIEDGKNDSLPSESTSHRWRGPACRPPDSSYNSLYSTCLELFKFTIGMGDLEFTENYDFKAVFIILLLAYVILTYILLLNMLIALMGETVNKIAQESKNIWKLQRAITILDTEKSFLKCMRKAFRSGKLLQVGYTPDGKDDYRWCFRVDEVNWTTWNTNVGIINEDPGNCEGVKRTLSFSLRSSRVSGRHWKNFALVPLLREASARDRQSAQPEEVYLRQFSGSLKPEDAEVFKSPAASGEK

SMILES: Fc1ccc(-c2cc(N3CCN(c4ncccc4C(F)(F)F)CC3)nc(N3CCNCC3)n2)cc1Cl [Example 546, 4-(3-chloro-4-fluorophenyl)-2-piperazin-1-yl-6-{4-[3-(trifluoromethyl)pyridin-2-yl]piperazin-1-yl}pyrimidine]
IC50 [1]: ≤ 1 µM

SMILES: CC1CCN1c1nc(-c2ccc(F)c(Cl)c2)cc(N2CCN(c3ncccc3C(F)(F)F)CC2)n1 (stereo not shown) [Example 746, 4-(3-ohloro-4-fluorophenyl)-2-(2-methylazetidin-1-yl)-6-{4-[3-(trifluoromethyl)pyridin-2-yl]piperazin-1-yl}pyrimidine]
IC50 [2]: ≤ 1 µM

SMILES: Fc1ccc(-c2cc(N3CCN(c4ncccc4C(F)(F)F)CC3)nc(N3CCC(CCN4CCCC4)CC3)n2)cc1Cl [Example 665, 4-(3-chloro-4-fluorophenyl)-2-[4-(2-pyrrolidin-1-ylethyl)piperidin-1-yl]-6-{4-[3-(trifluoromethyl)pyridin-2-yl]piperazin-1-yl}pyrimidine]
IC50 [2]: ≤ 1 µM

SMILES: FC(F)(F)c1cccc(-c2nc(N3CCOCC3)nc(N3CCN(c4ncccc4C(F)(F)F)CC3)n2)c1 [Example 438, 2-morpholin-4-yl-4-[3-(trifluoromethyl)phenyl]-6-{4-[3-(trifluoromethyl)pyridin-2-yl]piperazin-1-yl}-1,3,5-triazine]
IC50 [1]: ≤ 1 µM

SMILES: CC1CCCN1c1nc(-c2ccc(F)c(Cl)c2)cc(N2CCN(c3nccnc3Cl)C[C@H]2C)n1 (stereo partly shown) [Example 908]
IC50 [3]: ≤ 1 µM

SMILES: CC1=NCCN1c1nc(-c2ccc(F)c(Cl)c2)cc(N2CCN(c3ncccc3C(F)(F)F)CC2)n1 [Example 801, 4-(3-chloro-4-fluorophenyl)-2-(2-methyl-4,5-dihydro-1H-imidazol-1-yl)-6-{4-[3-(trifluoromethyl)pyridin-2-yl]piperazin-1-yl}pyrimidine]
IC50 [3]: ≤ 1 µM

SMILES: COCCN(C)c1nc(-c2ccc(F)c(C)c2)cc(N2CCN(c3ncccc3C(F)(F)F)CC2)n1 [Example 737, 4-(4-fluoro-3-methylphenyl)-N-(2-methoxyethyl)-N-methyl-6-{4-[3-(trifluoromethyl)pyridin-2-yl]piperazin-1-yl}pyrimid in-2-amine]
IC50 [2]: ≤ 1 µM

SMILES: OC1CN(c2nc(-c3ccc(F)c(Cl)c3)cc(N3CCN(c4ncccc4C(F)(F)F)CC3)n2)C1 [Example 774, 1-(4-(3-chloro-4-fluorophenyl)-6-{4-[3-(trifluoromethyl)pyridin-2-yl]piperazin-1-yl}pyrimidin-2-yl)azetidin-3-ol]
IC50 [3]: ≤ 1 µM

SMILES: CN(CC(=O)O)c1nc(-c2ccc(F)c(Cl)c2)cc(N2CCN(c3ncccc3C(F)(F)F)CC2)n1 [Example 619, N-(4-(3-chloro-4-fluorophenyl)-6-{4-[3-(trifluoromethyl)pyridin-2-yl]piperazin-1-yl}pyrimidin-2-yl)-N-methylglycine]
IC50 [2]: ≤ 1 µM

SMILES: COc1cnc(N2CCN(c3cc(-c4ccc(F)c(Cl)c4)nc(N4CCCC4C)n3)CC2)c(C)c1 (stereo not shown) [Example 818, 4-(3-chloro-4-fluorophenyl)-6-[4-(5-methoxy-3-methylpyridin-2-yl)piperazin-1-yl]-2-(2-methylpyrrolidin-1-yl)pyrimidine]
IC50 [3]: ≤ 1 µM

SMILES: CC1CC(=O)N1c1nc(-c2ccc(F)c(Cl)c2)cc(N2CCN(c3ncccc3C(F)(F)F)CC2)n1 (stereo not shown) [Example 740, 1-(4-(3-chloro-4-fluorophenyl)-6-{4-[3-(trifluoromethyl)pyridin-2-yl]piperazin-1-yl}pyrimidin-2-yl)-4-methylazetidin-2-one]
IC50 [2]: ≤ 1 µM

SMILES: FC(F)(F)c1cccnc1N1CCN(c2cc(-c3ccccc3)nc(N3CCOCC3)n2)CC1 [Example 574, 4-(4-phenyl-6-{4-[3-(trifluoromethyl)pyridin-2-yl]piperazin-1-yl}pyrimidin-2-yl)morpholine]
IC50 [2]: ≤ 1 µM

SMILES: Fc1ccc(-c2nc(N3CCCCCC3)nc(N3CCN(c4ncccc4C(F)(F)F)CC3)n2)cc1Cl [Example 265, 1-(4-(3-chloro-4-fluorophenyi)-6-{4-[3-(trifluoromethyl)pyridin-2-yl]piperazin-1-yl}-1,3,5-triazin-2-yl)azepane]
IC50 (determined as described in Example 6, class symbol): ≤ 1 µM

SMILES: Fc1ccc(-c2cc(N3CCN(c4ncccc4C(F)(F)F)CC3)nc(N3CCN(c4ncccc4C(F)(F)F)CC3)n2)cc1Cl [Example 673, 4-(3-chloro-4-fluorophenyl)-2,6-bis{4-[3-(trifluoromethyl)pyridin-2-yl]piperazin-1-yl}pyrimidine]
IC50 [2]: ≤ 1 µM

SMILES: C[C@@H]1CCCN1c1cc(-c2ccc(F)c(F)c2)nc(N2CCN(c3nccnc3Cl)C[C@@H]2C)n1 [Example 950, 2-[(2S)-4-(3-chloropyrazin-2-yl)-2-methylpiperazin-1-yl]-4-(3,4-difluorophenyl)-6-[(2R)-2-methylpyrrolidin-1-yl]pyrimidine]
IC50 [3]: ≤ 1 µM

Other lines, results leading:

IC50 [1]: ≤ 1 µM
SMILES: Cc1cccnc1N1CCN(c2cc(-c3ccc(C(C)C)cc3)nc(N3CCOCC3)n2)[C@H](C)C1 [Example 504, 4-{4-(4-isopropylphenyl)-6-[(2R)-2-methyl-4-(3-methylpyridin-2-yl)piperazin-1-yl]pyrimidin-2-yl}morpholine]

IC50 [3]: ≤ 1 µM
SMILES: C[C@@H]1CN(c2ncccc2Cl)CCN1c1cc(-c2ccc(F)cc2)nc(N2CCN3CCC[C@H]3C2)n1 [Example 890, (8aS)-2-[4-[(2R)-4-(3-chloropyridin-2-yl)-2-methylpiperazin-1-yl]-6-(4-fluorophenyl)pyrimidin-2-yl]octahydropyrrolo[1,2-a]pyrazine]

IC50 [3]: ≤ 1 µM
SMILES: COc1ccc(-c2cc(N3CCN(c4ncccc4Cl)C[C@H]3C)nc(N3CCCC3C)n2)cc1C (stereo partly drawn) [Example 810, 4-[(2R)-4-(3-chloropyridin-2-yl)-2-methylpiperazin-1-yl]-6-(4-methoxy-3-methylphenyl)-2-(2-methylpyrrolidin-1-yl)pyrimidine]

IC50 [3]: ≤ 1 µM
SMILES: Cc1cc(-c2cc(N3CCN(c4ncccc4Cl)C[C@H]3C)nc(N(C)C(C)CO)n2)ccc1F (stereo partly shown) [Example 905, 2-[[4-[4-(3-chloropyridin-2-yl)-2-methylpiperazin-1-yl]-6-(4-fluoro-3-methylphenyl)pyrimidin-2-yl](methyl)amino]propan-1-ol]

IC50 [3]: ≤ 1 µM
SMILES: Cc1cc(-c2cc(N3CCN(c4ncccc4Cl)C[C@@H]3C)nc(N3CCCC3C)n2)ccc1F (stereo in doubt) [Example 903, 4-[4-(3-chloropyridin-2-yl)-2-methylpiperazin-1-yl]-6-(4-fluoro-3-methylphenyl)-2-(2-methylpyrrolidin-1-yl)pyrimidine]

IC50 [1]: ≤ 1 µM
SMILES: C[C@@H]1CN(c2ncccc2Cl)CCN1c1cc(-c2cccc(F)c2)nc(N2CCOCC2)n1 [Example 488, 4-[4-[(2R)-4-(3-chloropyridin-2-yl)-2-methylpiperazin-1-yl]-6-(3-fluorophenyl)pyrimidin-2-yl]morpholine]

IC50 [1]: ≤ 1 µM
SMILES: CCc1cccc(-c2cc(N3CCN(c4ncccc4C#N)C[C@H]3C)nc(N3CCOCC3)n2)c1 [Example 514, 2-{(3R)-4-[6-(3-ethylphenyl)-2-morpholin-4-ylpyrimidin-4-yl]-3-methylpiperazin-1-yl}nicotinonitrile]

IC50 [1]: ≤ 1 µM
SMILES: Cc1ccc(-c2cc(N3CCN(c4ncccc4C#N)C[C@H]3C)nc(N3CCOCC3)n2)cc1F [Example 493, 2-{(3R)-4-[6-(3-fluoro-4-methylphenyl)-2-morpholin-4-ylpyrimidin-4-yl]-3-methylpiperazin-1-yl}nicotinonitrile]

IC50 [2]: ≤ 1 µM
SMILES: C[C@@H]1CN(c2ncccc2C(F)(F)F)CCN1c1cc(-c2ccc(F)c(Cl)c2)nc(N2CCCC2)n1 [Example 763, 4-(3-chloro-4-fluorophenyl)-6-{(2R)-2-methyl-4-[3-(trifluoromethyl)pyridin-2-yl]piperazin-1-yl}-2-pyrrolidin-1-ylpyrimidine]

IC50 [3]: ≤ 1 µM
SMILES: Cc1cc(-c2cc(N3CCN(c4ncccc4C(F)(F)F)C[C@H]3C)nc(N3CCC3(C)C)n2)ccc1F [Example 794, 2-(2,2-dimethylazetidin-1-yl)-4-(4-fluoro-3-methylphenyl)-6-{(2R)-2-methyl-4-[3-(trifluoromethyl)pyridin-2-yl]piperazin-1-yl}pyrimidine]

IC50 [3]: ≤ 1 µM
SMILES: C[C@@H]1CN(c2ncccc2F)CCN1c1cc(-c2ccc(F)c(F)c2)nc(N2CCOCC2)n1 [Example 897, 4-{4-(3,4-difluorophenyl)-6-[(2R)-4-(3-fluoropyridin-2-yl)-2-methylpiperazin-1-yl]pyrimidin-2-yl}morpholine]

IC50 [2]: ≤ 1 µM
SMILES: Cc1cc(-c2cc(N3CCN(c4ncccc4Cl)CC3)nc(N3CCCC3C)n2)ccc1F (stereo not shown) [Example 698, 4-[4-(3-chloropyridin-2-yl)piperazin-1-yl]-6-(4-fluoro-3-methylphenyl)-2-(2-methylpyrrolidin-1-yl)pyrimidine]

IC50 [1]: ≤ 1 µM
SMILES: C[C@@H]1CN(c2ncccc2C(F)(F)F)CCN1c1cc(-c2ccc(OC(F)(F)F)cc2)nc(N2CCOCC2)n1 [Example 528, 4-{4-{(2R)-2-methyl-4-(3-(trifluoromethyl)pyridin-2-yl]piperazin-1-yl}-6-[4-(trifluoromethoxy)phenyl]pyrimidin-2-yl}morpholine]

IC50 [1]: ≤ 1 µM
SMILES: CSc1cccc(-c2cc(N3CCN(c4ncccc4C(F)(F)F)C[C@H]3C)nc(N3CCOCC3)n2)c1 [Example 538, 4-(4-[3-(methylthio)phenyl]-6-{(2R)-2-methyl-4-[3-(trifluoromethyl)pyridin-2-yl]piperazin-1-yl}pyrimidin-2-yl)morpholine]

IC50 [3]: ≤ 1 µM
SMILES: C[C@@H]1CN(c2ncccc2Cl)CCN1c1cc(-c2ccc(Cl)c(F)c2)nc(N2CCOCC2)n1 [Example 835, 4-{4-(4-chloro-3-fluorophenyl)-6-[(2R)-4-(3-chloropyridin-2-yl)-2-methylpiperazin-1-yl]pyrimidin-2-yl}morpholine]

IC50 [1]: ≤ 1 µM
SMILES: Cc1ccc(-c2cc(N3CCN(c4ncccc4C#N)C[C@H]3C)nc(N3CCOCC3)n2)cc1C [Example 506, 2-{(3R)-4-[6-(3,4-dimethylphenyl)-2-morpholin-4-ylpyrimidin-4-yl]-3-methylpiperazin-1-yl}nicotinonitrile]
